Test results from patent US6472348B1, “Pyridone derivatives and herbicides” (Kumiai Chemical Industry Co., Ltd., priority 1996, dated 2002).

Test system: barnyardgrass (Ec)
Experiment: Test Example 1: herbicidal effects by paddy field soil treatment;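 further: grade of growth control; 5 = at least 90%; 4 = 70 to 90%; 3 = 50 to 70%; 2 = 30 to 50%; 1 = 10 to 30%; 0 = under 10%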
Type: in vivo
Conditions: 100 g of the active ingredient per 10 ares, 21st day after the application, index 0-5 of Table 47
Outline: (§1)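 Flooded paddy-soil pots (3 cm water) sown after puddling/leveling; treatment 100 g a.i./10 ares; greenhouse culture; herbicidal effect rated visually on a scoring scale at 21 d post-application.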

Structure (SMILES)	Herbicidal effects Ec
COCOCc1cc(-c2ccc(C(F)(F)F)n(C)c2=O)c(F)cc1Cl [Compound 1-200]	5

Test system: bulrush (Sc)
Experiment: as above
Type: in vivo
Conditions: 100 g of the active ingredient per 10 ares, 21st day after the application, index 0-5 of Table 47
Outline: as §1

Structure (SMILES)	Herbicidal effects Sc
COCOCc1cc(-c2ccc(C(F)(F)F)n(C)c2=O)c(F)cc1Cl [Compound 1-200]	5

Test system: monochoria (Mo)
Experiment: as above
Type: in vivo
Conditions: 100 g of the active ingredient per 10 ares, 21st day after the application, index 0-5 of Table 47
Outline: as §1

Structure (SMILES)	Herbicidal effects Mo
COCOCc1cc(-c2ccc(C(F)(F)F)n(C)c2=O)c(F)cc1Cl [Compound 1-200]	5

Test system: Digitaria ciliaris (Di)
Experiment: Test Example 2: herbicidal effects by upland field soil treatment;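 further: grade of growth control; 5 = at least 90%; 4 = 70 to 90%; 3 = 50 to 70%; 2 = 30 to 50%; 1 = 10 to 30%; 0 = under 10%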
Type: in vivo
Conditions: 100 g of the active ingredient per 10 ares, evaluated on the 21st day after application
Excerpt: (§2) (Test on Herbicidal Effects by Upland Field Soil Treatment)

Structure (SMILES)	Herbicidal effects Di
COCOCc1cc(-c2ccc(C(F)(F)F)n(C)c2=O)c(F)cc1Cl [Compound 1-200]	5

Test system: barnyardgrass (Ec)
Experiment: as above
Type: in vivo
Conditions: 100 g of the active ingredient per 10 ares, evaluated on the 21st day after application
Excerpt: as §2

Structure (SMILES)	Herbicidal effects Ec
COCOCc1cc(-c2ccc(C(F)(F)F)n(C)c2=O)c(F)cc1Cl [Compound 1-200]	5

Test system: common lambsquarters (Ch)
Experiment: as above
Type: in vivo
Conditions: 100 g of the active ingredient per 10 ares, evaluated on the 21st day after application
Excerpt: as §2

Structure (SMILES)	Herbicidal effects Ch
COCOCc1cc(-c2ccc(C(F)(F)F)n(C)c2=O)c(F)cc1Cl [Compound 1-200]	5

Test system: pale smartweed (Po)
Experiment: as above
Type: in vivo
Conditions: 100 g of the active ingredient per 10 ares, evaluated on the 21st day after application
Excerpt: as §2

Structure (SMILES)	Herbicidal effects Po
COCOCc1cc(-c2ccc(C(F)(F)F)n(C)c2=O)c(F)cc1Cl [Compound 1-200]	5

Test system: rice flatsedge (Ci)
Experiment: as above
Type: in vivo
Conditions: 100 g of the active ingredient per 10 ares, evaluated on the 21st day after application
Excerpt: as §2

Structure (SMILES)	Herbicidal effects Ci
COCOCc1cc(-c2ccc(C(F)(F)F)n(C)c2=O)c(F)cc1Cl [Compound 1-200]	5

Test system: slender amaranth (Am)
Experiment: as above
Type: in vivo
Conditions: 100 g of the active ingredient per 10 ares, evaluated on the 21st day after application
Excerpt: as §2

Structure (SMILES)	Herbicidal effects Am
COCOCc1cc(-c2ccc(C(F)(F)F)n(C)c2=O)c(F)cc1Cl [Compound 1-200]	5

Test system: Diaitaria ciliaris (Di)
Experiment: Test Example 3: herbicidal effects by upland field foliage treatment
Type: in vivo
Parameters: scale not given here
Conditions: 100 g active ingredient per 10 ares, evaluated 14th day after treatment
Outline: (§3)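 Post-emergence upland foliage test. Seedlings grown 2 weeks under glass in pots (120 cm^2) of sand, seed topped with soil; treated on the foliage, kept in greenhouse, then assessed at day 14 using rating standards.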

Structure (SMILES)	Herbicidal effects Di
COCOCc1cc(-c2ccc(C(F)(F)F)n(C)c2=O)c(F)cc1Cl [Compound 1-200]	5

Test system: barnyardgrass (Ec)
Experiment: as above
Type: in vivo
Parameters: scale not given here
Conditions: 100 g active ingredient per 10 ares, evaluated 14th day after treatment
Outline: as §3

Structure (SMILES)	Herbicidal effects Ec
COCOCc1cc(-c2ccc(C(F)(F)F)n(C)c2=O)c(F)cc1Cl [Compound 1-200]	5

Test system: common lambsquarters (Ch)
Experiment: as above
Type: in vivo
Parameters: scale not given here
Conditions: 100 g active ingredient per 10 ares, evaluated 14th day after treatment
Outline: as §3

Structure (SMILES)	Herbicidal effects Ch
COCOCc1cc(-c2ccc(C(F)(F)F)n(C)c2=O)c(F)cc1Cl [Compound 1-200]	5

Test system: pale smartweed (Po)
Experiment: as above
Type: in vivo
Parameters: scale not given here
Conditions: 100 g active ingredient per 10 ares, evaluated 14th day after treatment
Outline: as §3

Structure (SMILES)	Herbicidal effects Po
COCOCc1cc(-c2ccc(C(F)(F)F)n(C)c2=O)c(F)cc1Cl [Compound 1-200]	5

Test system: rice flatsedge (Ci)
Experiment: as above
Type: in vivo
Parameters: scale not given here
Conditions: 100 g active ingredient per 10 ares, evaluated 14th day after treatment
Outline: as §3

Structure (SMILES)	Herbicidal effects Ci
COCOCc1cc(-c2ccc(C(F)(F)F)n(C)c2=O)c(F)cc1Cl [Compound 1-200]	5

Test system: slender amaranth (Am)
Experiment: as above
Type: in vivo
Parameters: scale not given here
Conditions: 100 g active ingredient per 10 ares, evaluated 14th day after treatment
Outline: as §3

Structure (SMILES)	Herbicidal effects Am
COCOCc1cc(-c2ccc(C(F)(F)F)n(C)c2=O)c(F)cc1Cl [Compound 1-200]	5

Test system: wheat (Tr)
Experiment: Test Example 9: crop plant selectivity by upland field foliage treatment (wheat), phytotoxicity;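 further: grade of crop injury; 5 = at least 90%; 4 = 70 to 90%; 3 = 50 to 70%; 2 = 30 to 50%; 1 = 10 to 30%; 0 = under 10%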
Conditions: dose 1.6 g ai/10a, 14th day after treatment
Outline: (§4)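 Wheat and weeds sown in sand-filled pots, grown 2 weeks in a greenhouse, then foliage-treated. Herbicidal effect and crop phytotoxicity were scored 14 days after treatment against a rating scale.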

Structure (SMILES)	Phytotoxicity Tr
COCOCc1cc(-c2ccc(C(F)(F)F)n(C)c2=O)c(F)cc1Cl [Compound 1-200]	2

Test system: China jute (Ab)
Experiment: Test Example 9: crop plant selectivity by upland field foliage treatment (wheat), herbicidal effects
Type: in vivo
Parameters: scale not given here
Conditions: dose 1.6 g ai/10a, 14th day after treatment
Outline: as §4

Structure (SMILES)	Herbicidal effects Ab
COCOCc1cc(-c2ccc(C(F)(F)F)n(C)c2=O)c(F)cc1Cl [Compound 1-200]	5

Test system: common lambsquarters (Ch)
Experiment: as above
Type: in vivo
Parameters: scale not given here
Conditions: dose 1.6 g ai/10a, 14th day after treatment
Outline: as §4

Structure (SMILES)	Herbicidal effects Ch
COCOCc1cc(-c2ccc(C(F)(F)F)n(C)c2=O)c(F)cc1Cl [Compound 1-200]	5

Test system: pale smartweed (Po)
Experiment: as above
Type: in vivo
Parameters: scale not given here
Conditions: dose 1.6 g ai/10a, 14th day after treatment
Outline: as §4

Structure (SMILES)	Herbicidal effects Po
COCOCc1cc(-c2ccc(C(F)(F)F)n(C)c2=O)c(F)cc1Cl [Compound 1-200]	5

Test system: slender amaranth (Am)
Experiment: as above
Type: in vivo
Parameters: scale not given here
Conditions: dose 1.6 g ai/10a, 14th day after treatment
Outline: as §4

Structure (SMILES)	Herbicidal effects Am
COCOCc1cc(-c2ccc(C(F)(F)F)n(C)c2=O)c(F)cc1Cl [Compound 1-200]	5

Test system: corn (Ze)
Experiment: Test Example 11: crop plant selectivity by upland field foliage treatment (corn), phytotoxicity
Conditions: upland field foliage treatment, dose 1.6 g ai/10a, 14th day after treatment
Procedure: (§5) (Test on Crop Plant Selectivity by Upland Field Foliage Treatment)
(§6) In a plastic pot (surface area: 600 cm^2) filled with sand, corn (Ze), pale smartweed (Po), slender amaranth (Am), common lambsquarters (Ch) and China jute (Ab) were sown and cultured in a green house for 2 weeks. […] The plants were then cultured in a green house, and the evaluation of the herbicidal effects and phytotoxicity was conducted on the 14th day after the treatment in accordance with the standards as identified in Table 47.

Structure (SMILES)	Phytotoxicity Ze
COCOCc1cc(-c2ccc(C(F)(F)F)n(C)c2=O)c(F)cc1Cl [Compound 1-200]	2

Test system: China jute (Ab)
Experiment: Test Example 11: crop plant selectivity by upland field foliage treatment (corn), herbicidal effects
Type: in vivo
Parameters: scale not given here
Conditions: upland field foliage treatment (corn test), dose 1.6 g ai/10a, 14th day after treatment
Procedure: as §5, §6

Structure (SMILES)	Herbicidal effects Ab
COCOCc1cc(-c2ccc(C(F)(F)F)n(C)c2=O)c(F)cc1Cl [Compound 1-200]	5

Test system: common lambsquarters (Ch)
Experiment: as above
Type: in vivo
Parameters: scale not given here
Conditions: upland field foliage treatment (corn test), dose 1.6 g ai/10a, 14th day after treatment
Procedure: as §5, §6

Structure (SMILES)	Herbicidal effects Ch
COCOCc1cc(-c2ccc(C(F)(F)F)n(C)c2=O)c(F)cc1Cl [Compound 1-200]	5

Test system: pale smartweed (Po)
Experiment: as above
Type: in vivo
Parameters: scale not given here
Conditions: upland field foliage treatment (corn test), dose 1.6 g ai/10a, 14th day after treatment
Procedure: as §5, §6

Structure (SMILES)	Herbicidal effects Po
COCOCc1cc(-c2ccc(C(F)(F)F)n(C)c2=O)c(F)cc1Cl [Compound 1-200]	5

Test system: slender amaranth (Am)
Experiment: as above
Type: in vivo
Parameters: scale not given here
Conditions: upland field foliage treatment (corn test), dose 1.6 g ai/10a, 14th day after treatment
Procedure: as §5, §6

Structure (SMILES)	Herbicidal effects Am
COCOCc1cc(-c2ccc(C(F)(F)F)n(C)c2=O)c(F)cc1Cl [Compound 1-200]	5
